Experimental data: patent US8822754B2, “Ecdysone receptor-based inducible gene expression system” (Intrexon Corporation, priority 2000, dated 2014)

Legend:
GAL4RXR + VP16CfEcR = test: Transactivation of reporter genes through switch 1.3 in CHO cells; type: cell-based, Choristoneura fumiferana; details: switch 1.3 GAL4RXR + VP16CfEcR, pGAL4RELuc
Experimental: (§1) The cells were harvested and reporter activity was assayed.
(§2) Cells were harvested 24-48 hr after adding ligands. […] Twenty μl of lysate was assayed.

GAL4CfEcRVP16 = test: Transactivation of reporter genes through switch 1.6 in CHO cells; type: cell-based, Choristoneura fumiferana; details: switch 1.6 GAL4CfEcRVP16, pGAL4RELuc
Experimental: This construct was prepared so that both the GAL4 DNABD and the VP16AD were placed on the same molecule. GAL4DNABD (SEQ ID NO: 41) and VP16AD (SEQ ID NO: 45) were fused to CfEcRDEF (SEQ ID NO: 3) at N- and C-termini respectively.
as §1, §2

CfVgRXR [1] = test: Transactivation of reporter genes through switch 1.10 in CHO cells; type: cell-based, Choristoneura fumiferana; details: switch 1.10 CfVgRXR, pIND(SP1)LacZ
Experimental: (§3) This example was prepared in the same way as switch 1.9 except MmRXR (SEQ ID NO: 53) was deleted.
as §1, §2

GAL4EcR + VP16RXR [2] = test: Transactivation of reporter genes through switch 1.1 in 3T3 cells
Text: In various cellular backgrounds, including mammalian cells, insect ecdysone receptor (EcR) heterodimerizes with retinoid X receptor (RXR) and, upon binding of ligand, transactivates genes under the control of ecdysone response elements. Applicants constructed several EcR-based gene expression cassettes based on the spruce budworm Choristoneura fumiferana EcR (“CfEcR”; full length polynucleotide and amino acid sequences are set forth in SEQ ID NO: 49 and SEQ ID NO: 50, respectively), C. fumiferana ultraspiracle (“CfUSP”; full length polynucleotide and amino acid sequences are set forth in SEQ ID NO: 51 and SEQ ID NO: 52, respectively), and mouse Mus musculus RXRα (MmRXRα; full length polynucleotide and amino acid sequences are set forth in SEQ ID NO: 53 and SEQ ID NO: 54, respectively). The prepared receptor constructs comprise a ligand binding domain of EcR and of RXR or of USP; a DNA binding domain of GAL4 or of EcR; and an activation domain of VP16. The reporter constructs include a reporter gene, luciferase or LacZ, operably linked to a synthetic promoter construct that comprises either GAL4 or EcR/USP binding sites (response elements). Various combinations of these receptor and reporter constructs were cotransfected into CHO, NIH3T3, CV1 and 293 cells. […] Reporter gene expression activities were assayed at 24 hr or 48 hr after ligand addition.
The same procedures described for CHO cells were followed for 3T3 cells as well with two modifications. The cells were plated when they reached 50% confluency. 125,000 or 50,000 or 25,000 cells were plated per well of 6- or 12- or 24-well plates respectively. The GAl4EcR/VP16RXR and reporter vector DNAs were transfected into NIH3T3 cells, the transfected cells were grown in medium containing PonA, MurA, N-(2-ethyl-3-methoxybenzoyl)-N′-(3,5-dimethylbenzoyl)-N′-t-butylhydrazine, or N-(3,4-(1,2-ethylenedioxy)-2-methylbenzoyl)-N′-(3,5-dimethylbenzoyl)-N′-tert-butylhydrazine for 48 hr. The ligand treatments were performed as described in the CHO cell section above.
Cells were harvested 24-48 hr after adding ligands. 125, 250, or 500 μl of passive lysis buffer (part of Dual-luciferase™ reporter assay system from Promega Corporation) were added to each well of 24- or 12- or […] respectively. The plates were placed on a rotary shaker for 15 min. Twenty μl of lysate was assayed. Luciferase activity was measured using Dual-luciferase™ reporter assay system from Promega Corporation following the manufacturer's instructions. β-Galactosidase was measured using Galacto-Star™ assay kit from TROPIX following the manufacturer's instructions. All luciferase and β-galactosidase activities were normalized using Renilla luciferase as a standard. Fold activities were calculated by dividing normalized relative light units (“RLU”) in ligand treated cells with normalized RLU in DMSO treated cells (untreated control).

GAL4USP + VP16CfEcR [3] = test: Transactivation of reporter genes through switch 1.5 in 3T3 cells; type: cell-based, Choristoneura fumiferana; details: switch 1.5 GAL4USP + VP16CfEcR, pGAL4RELuc
Experimental: (§4) This construct was prepared in the same way as switch 1.3 except MmRXRDEF was replaced with CfUSPDEF (SEQ ID NO: 58).
(§5) The cells were plated when they reached 50% confluency.
as §2

VP16CfEcR = test: Transactivation of reporter genes through switch 1.7 in 3T3 cells; type: cell-based, Choristoneura fumiferana; details: switch 1.7 VP16CfEcR, pEcRELuc
Experimental: Six ecdysone response elements (“EcRE”; SEQ ID NO: 59) from the hsp27 gene were placed upstream of the promoter and a luciferase gene (SEQ ID NO: 57). This switch most probably uses endogenous RXR.
as §5, §2

DmVgRXR + MmRXR [4] = biological target: T1, DmVgRXR + MmRXR (Drosophila melanogaster, UniProt P34021, E282G/G283S/G286V); test: Transactivation of reporter genes through switch 1.8 in 3T3 cells; type: cell-based; details: switch 1.8 DmVgRXR + MmRXR, pIND(SP1)LacZ
T1 construct: host or cells: CHO, NIH3T3, 293 or CV1 cells (one cell line per assay)
Text: (§6) This system was purchased from Invitrogen Corp., Carlsbad, Calif. It comprises a Drosophila melanogaster EcR (“DmEcR”) with a modified DNABD fused to VP16AD and placed under the control of a CMV promoter (SEQ ID NO: 60). Full length MmRXR (SEQ ID NO: 53) was placed under the control of the RSV promoter (SEQ ID NO: 61). The reporter, pIND(SP1)LacZ, contains five copies of a modified ecdysone response element (“EcRE”, E/GRE), three copies of an SP1 enhancer, and a minimal heat shock promoter, all of which were placed upstream to the LacZ reporter gene.
as §5, §2

DmVgRXR + MmRXR [5] = biological target: T1, DmVgRXR + MmRXR; test: Transactivation of reporter genes through switch 1.8 in 293 cells; type: cell-based; details: switch 1.8 DmVgRXR + MmRXR, pIND(SP1)LacZ
Text: as §6
The same procedures described for CHO were followed for 293 cells except that the cells were plated in biocoated plates to avoid clumping.
as §2

GAL4EcR + VP16RXR [6] = test: Transactivation of reporter genes through switch 1.1 in CV1 cells; type: cell-based, Choristoneura fumiferana; details: switch 1.1 GAL4EcR + VP16RXR, pGAL4RELuc
Experimental: (§7) The same procedures described for NIH3T3 cells were followed for CV1 cells
as §2

GAL4USP + VP16CfEcR [7] = test: Transactivation of reporter genes through switch 1.5 in CV1 cells; type: cell-based, Choristoneura fumiferana; details: switch 1.5 GAL4USP + VP16CfEcR, pGAL4RELuc
Experimental: as §4, §7, §2

CfVgRXR [8] = test: Transactivation of reporter genes through switch 1.10 in CV1 cells; type: cell-based, Choristoneura fumiferana; details: switch 1.10 CfVgRXR, pIND(SP1)LacZ
Experimental: as §3, §7, §2

T1 sequence (P34021 whole entry E282G/G283S/G286V): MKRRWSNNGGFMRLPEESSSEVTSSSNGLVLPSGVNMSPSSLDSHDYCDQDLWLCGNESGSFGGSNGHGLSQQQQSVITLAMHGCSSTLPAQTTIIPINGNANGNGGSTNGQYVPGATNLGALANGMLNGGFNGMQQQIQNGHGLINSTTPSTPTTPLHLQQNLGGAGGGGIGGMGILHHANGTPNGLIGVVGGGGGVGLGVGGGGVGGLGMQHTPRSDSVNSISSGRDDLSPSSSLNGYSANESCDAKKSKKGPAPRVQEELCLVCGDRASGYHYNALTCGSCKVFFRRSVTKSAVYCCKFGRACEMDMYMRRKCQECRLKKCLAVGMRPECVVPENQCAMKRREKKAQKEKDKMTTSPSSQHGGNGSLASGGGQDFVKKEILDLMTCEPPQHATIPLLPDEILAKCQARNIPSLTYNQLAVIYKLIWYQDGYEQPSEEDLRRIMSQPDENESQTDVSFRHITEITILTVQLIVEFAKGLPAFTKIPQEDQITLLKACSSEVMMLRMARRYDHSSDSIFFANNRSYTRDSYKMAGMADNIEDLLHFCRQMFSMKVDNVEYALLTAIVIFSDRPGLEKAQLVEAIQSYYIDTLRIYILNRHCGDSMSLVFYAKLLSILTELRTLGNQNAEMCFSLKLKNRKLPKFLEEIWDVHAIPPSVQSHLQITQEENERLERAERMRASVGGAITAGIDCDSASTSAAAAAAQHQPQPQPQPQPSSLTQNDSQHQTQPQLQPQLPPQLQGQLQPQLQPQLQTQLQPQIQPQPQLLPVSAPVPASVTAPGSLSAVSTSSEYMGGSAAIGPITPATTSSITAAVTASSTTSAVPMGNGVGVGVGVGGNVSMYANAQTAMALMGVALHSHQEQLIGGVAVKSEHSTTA
T1 sequence (P28700 whole entry, further chain): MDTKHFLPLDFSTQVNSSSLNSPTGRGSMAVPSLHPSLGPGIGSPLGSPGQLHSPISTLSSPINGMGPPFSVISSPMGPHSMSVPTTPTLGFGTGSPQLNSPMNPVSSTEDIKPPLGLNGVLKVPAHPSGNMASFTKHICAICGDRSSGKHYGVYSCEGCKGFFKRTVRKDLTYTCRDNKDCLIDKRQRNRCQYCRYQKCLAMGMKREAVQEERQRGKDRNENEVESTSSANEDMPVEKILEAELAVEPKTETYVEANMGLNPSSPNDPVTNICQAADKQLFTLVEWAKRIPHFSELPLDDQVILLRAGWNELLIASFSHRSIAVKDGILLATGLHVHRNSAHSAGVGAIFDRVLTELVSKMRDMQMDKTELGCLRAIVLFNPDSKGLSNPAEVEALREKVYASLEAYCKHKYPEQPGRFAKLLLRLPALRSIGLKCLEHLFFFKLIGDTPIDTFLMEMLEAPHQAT

## CCc1c(OC)cccc1C(=O)NN(C(=O)c1cc(C)cc(C)c1)C(C)(C)C [N-(2-ethyl-3-methoxybenzoyl)-N′-(3,5-dimethylbenzoyl)-N′-tert-butylhydrazine]
GAL4RXR + VP16CfEcR
  Mean Fold Activation with 50 μM N-(2-ethyl-3-methoxybenzoyl)-N′-(3,5-dimethylbenzoyl)-N′-t-butylhydrazine: 85 fold
GAL4CfEcRVP16
  Mean Fold Activation with 50 μM N-(2-ethyl-3-methoxybenzoyl)-N′-(3,5-dimethylbenzoyl)-N′-t-butylhydrazine: 9 fold
CfVgRXR [1]
  Mean Fold Activation with 50 μM N-(2-ethyl-3-methoxybenzoyl)-N′-(3,5-dimethylbenzoyl)-N′-t-butylhydrazine: 29 fold
GAL4EcR + VP16RXR [2]; GAL4CfEcRDEF/VP16MmRXRDEF (switch 1.1), 1.0 μM ligand, 48 hr
  Mean Fold Induction at 1.0 μM Concentration: 116 fold
GAL4EcR + VP16RXR [2]; switch 1.1 GAL4EcR + VP16RXR, pGAL4RELuc
  Mean Fold Activation Through N-(2-ethyl-3-methoxybenzoyl)-N′-(3,5-dimethylbenzoyl)-N′-t-butylhydrazine: 1118 fold
GAL4USP + VP16CfEcR [3]
  Mean Fold Activation Through N-(2-ethyl-3-methoxybenzoyl)-N′-(3,5-dimethylbenzoyl)-N′-t-butylhydrazine: 3 fold
VP16CfEcR
  Mean Fold Activation Through N-(2-ethyl-3-methoxybenzoyl)-N′-(3,5-dimethylbenzoyl)-N′-t-butylhydrazine: 1 fold
DmVgRXR + MmRXR [4]
  Mean Fold Activation Through N-(2-ethyl-3-methoxybenzoyl)-N′-(3,5-dimethylbenzoyl)-N′-t-butylhydrazine: 21 fold
DmVgRXR + MmRXR [5]
  Mean Fold Activation Through N-(2-ethyl-3-methoxybenzoyl)-N′-(3,5-dimethylbenzoyl)-N′-t-butylhydrazine: 21 fold
GAL4EcR + VP16RXR [6]
  Mean Fold Activation Through N-(2-ethyl-3-methoxybenzoyl)-N′-(3,5-dimethylbenzoyl)-N′-t-butylhydrazine: 279 fold
GAL4USP + VP16CfEcR [7]
  Mean Fold Activation Through N-(2-ethyl-3-methoxybenzoyl)-N′-(3,5-dimethylbenzoyl)-N′-t-butylhydrazine: 3 fold
CfVgRXR [8]
  Mean Fold Activation Through N-(2-ethyl-3-methoxybenzoyl)-N′-(3,5-dimethylbenzoyl)-N′-t-butylhydrazine: 1 fold
